# Experimental data published in paper PMC6235670, “An mTOR Signaling Modulator Suppressed Heterotopic Ossification of Fibrodysplasia Ossificans Progressiva” (Stem Cell Reports, 2018).
# How the values were obtained:
# BMP signaling (BRE-Luc) = assay: BRE-Luc reporter assay in FOP-iMSCs; type: cell-based, human; conditions: activin A and compounds for 16 hr
# Method: FOP-iMSCs transiently transfected with BRE-Luc (A) or CAGA-Luc (B) with CMV-Renilla were stimulated with activin A and compounds for 16 hr (A) or 3 hr (B). […] One day after siRNA transfection, chondrogenic induction with activin A was initiated, and after 7 days the cells were harvested. […] FOP-iMSCs cultured with 10% FBS were treated with 100 nM rapamycin (Rapa) or TAK 165 (TAK) for 2 hr, and the cells were harvested. […] 1 μM TAK, 1 μM CP (CP-724714, another selective ERBB2 inhibitor), or 10 nM Rapa were applied in the experiments.
# ERBB2 = conditions: panel of 300 recombinant protein kinases; ref Anastassiadis et al., 2011; cited from earlier work
# FOP-iMSCs = assay: 2D chondrogenic induction of FOP-iMSCs with activin A (GAG, Alcian blue); type: cell-based, human
# mTOR signaling (p-S6) [1] = assay: p-S6 western blotting in FOP-iMSCs cultured with 10% FBS; type: cell-based, human; conditions: 100 nM, 2 hr
# Method: time point t = 24 h from t = 0 h, and relative cell migration was expressed as the ratio of the absolute cell migrations between the experimental and control groups by using CL-Quant software (Nikon Corp.).
# Quantitative PCR analysis. Total RNA was purified with RNeasy Kit (Qiagen) and treated with DNase -one Kit (Qiagen) to remove genomic DNA. Total RNA (0.3 µg) was reverse transcribed for single-stranded cDNA using random primers and Superscript III reverse transcriptase (Thermo Fisher Scientific) according to the manufacturer’s instructions. Quantitative PCR was performed with Thunderbird SYBR qPCR Mix (TOYOBO) and analyzed with the StepOne real-time PCR system (Applied Biosystems). […]
# Microarray experiments. 2D chondrogenic induction was performed in FOP-iMSCs stimulated with or without 100 ng/mL Activin-A, TAK 165, CP-724714 and Lapatinib. […] Raw CEL files were imported into GeneSpring GX 12.6.1 software (Agilent Technologies), and expression values were calculated with the RMA16 algorithm. […]
# Protein bands were detected with ECL Prime Western Blotting Detection Reagent (GE Healthcare) and visualized using BIO-RAD Molecular Imager® Chemi-DocTM XRS+ with Image LabTM software (Bio-Rad). […]
# GAG value. The GAG content was quantified in pellets with the Blyscan Glycosaminoglycan Assay Kit (Biocolor). The DNA content was quantified using PicoGreen dsDNA Quantitation Kit (Thermo Fisher […]
# C57BL/6 mice = assay: Growth plate histology and normal bone µCT in compound-administered BMP-7-injected mice; conditions: 5 mg/kg i.p., 2 weeks
# Method: MTOR s604 […]tt […]at […]
# System Engineering) according to the manufacturer's instructions. […]
# BMP-7-induced HO model mice. BMP -7 (2 µ g/mouse) was injected into the right gastrocnemius muscle of C57BL/6NJcl mice (6-8 weeks, male, CLEA Japan), and compounds were administered once a day, five times a week (intraperitoneal administration). Mice were analyzed 2 weeks after injection. […]
# Histological analysis of growth plates chondrocytes. Knee joints were obtained from BMP-7-injected and test compounds-administrated C57BL/6NJcl mice after 2 weeks treatment and fixed, paraffin-embedded, and sectioned and stained with Safranin O. The thickness of the proliferative and hypertrophic zones of the growth plate were measured using ImageJ software on images obtained using a Keyence microscope (Keyence A merica). The proliferative zone was defined as the region with flat chondrocytes stacked in longitudinal columns, and the hypertrophic zone as the region where chondrocytes are enlarged in size and form clusters.
# Normal bone µCT. The left legs of mice were obtained from BMP -7-injected and test -compounds administrated C57BL/6NJcl mice after 2 weeks treatment. The region of interest (ROI) included the femur- tibia (entire femur in addition to the part of tibia above tibia/fibular junction). […]
# Tests of side effects of direct and indirect mTOR inhibitors. Related
# mTOR signaling (p-S6) [2] = assay: p-S6 western blotting during chondrogenic induction of FOP-iMSCs with activin A; type: cell-based, human; conditions: 1 μM
# Method: Western blotting. SDS- PAGE and blotting with whole-cell lysates were performed by standard procedures.
# Protein bands were detected with ECL Prime Western Blotting Detection Reagent (GE Healthcare) and visualized using BIO-RAD Molecular Imager® Chemi-DocTM XRS+ with Image LabTM software (Bio-Rad).
# All data (relative intensity) were corrected by β-actin.
# Antibodies for western blotting and immunostaining.
# N ame Company Cat. No Concentration
# Human Activin RIA/ALK-2 Antibody R&D Systems) AF637 1:100
# Anti-human Vimentin antibody Abcam ab16700 1:40
# Collagen I Antibody Novus NB600- 1:100
# Anti-rabbit IgG, HRP-linked Antibody Cell Signaling #7074 1:10000 […]
# 2nd Goat anti-Rabbit IgG (H+L) Secondary Antibody, Invitrogen A-11008 1:100 antibody Alexa Fluor® 488 conjugate
# Goat anti-Rabbit IgG (H+L) Secondary Antibody, Invitrogen A-21428 1:500
smiles,measurement,setting,value
"FC(F)(F)c1ccc(/C=C/c2nc(COc3ccc(CCCCn4ccnn4)cc3)co2)cc1 [TAK 165, mubritinib]",BRE-Luc (BMP-specific luciferase reporter),BMP signaling (BRE-Luc),did not affect
same,selectivity for ERBB2,ERBB2,highly selective
same,inhibition of glycosaminoglycan (GAG) production,"FOP-iMSCs; 1 μM, activin A, 7 days",potent inhibition
same,"suppression of chondrogenic induction (GAG), dose dependence","FOP-iMSCs; activin A, 7 days",dose-dependent
same,Alcian blue staining,FOP-iMSCs; compared with other HTS hits,obviously different effects
same,p-S6 levels (direct mTOR inhibition),mTOR signaling (p-S6) [1],did not
same,Bone Mineral Density (normal bone µCT) vs vehicle,C57BL/6 mice,n.s.
same,"Bone volume (normal bone µCT, femur-tibia) vs vehicle",C57BL/6 mice,n.s.
same,Hypertrophic zone thickness of growth plate vs vehicle,C57BL/6 mice,n.s.
same,Proliferative zone thickness of growth plate vs vehicle,C57BL/6 mice,n.s.
same,chondrogenesis of normal chondrocytes (growth plate),C57BL/6 mice,did not impair
same,normal skeletal development in vivo,C57BL/6 mice,did not impair
same,p-S6 after 24-hr stimulation,mTOR signaling (p-S6) [2]; 24 hr,no effects
same,p-S6 after 7 days of stimulation,mTOR signaling (p-S6) [2]; 7 days,dramatically decreased
